Measurements reported in patent US12115170B2, “Compositions and methods of clostridiodides difficile treatment, decolonization, and prevention” (Wisconsin Alumni Research Foundation, priority 2021, dated 2024).
≈ marks a conversion by molar mass, not a printed value. Where two headings read alike, the source gives them in different places.

What was measured:
[1] = system: C. difficile spores (all strains); test: Spore washing and germination, all strains; settings: 0.5 mg/ml docusate exposure
C. difficile VPI 10463 [2] = test: CDI murine model, non-severe model; assay type: in vivo, C57BL/6 mice
[3] = system: C. difficile spores (four strains tested); test: Time-kill curves, S-CFU, four strains tested; assay type: cell-based, Clostridioides difficile
[4] = cited from earlier work; for Fecal concentration: clinical dosing, oral
[5] = system: C. difficile ATCC 1870 vegetative cells; test: Time-kill curves, T-CFU versus S-CFU, ATCC 1870; assay type: cell-based, Clostridioides difficile
[6] = system: C. difficile VPI 10463 (ATCC 43255); test: MIC by broth microdilution, VPI 10463; assay type: cell-based; settings: Clostridioides difficile
Experimental: (§1) Susceptibility testing: The minimum inhibitory concentration (MIC), defined as the lowest concentration of an antimicrobial that will inhibit the visible growth of a microorganism, was determined for all isolates. […] Microwell plates containing omadacycline and BHI were used on the same day as their creation, and all media were reduced for 24 h prior. Media used to inoculate plates were created by suspending 24-h colonies in BHI to a McFarland standard of 0.5, which was added to each well, sufficient to about 1×10^6 CFU/ml. A total volume of […] was used, and plates were read after 24 h of incubation in the anaerobic hood. The lowest concentration without growth was determined to be the MIC. In accordance with CLSI recommendations, C. difficile ATCC 700057 was used as a control for each plate.

[7] = system: C. difficile ATCC 700057 (VPI 11186); test: MIC by broth microdilution, control strain ATCC 700057; assay type: cell-based, Clostridioides difficile
Experimental: as §1

[8] = system: C. difficile 4118 (ATCC 1870); test: MIC by broth microdilution, ATCC 1870; assay type: cell-based; settings: Clostridioides difficile
Experimental: as §1

[9] = system: C. difficile ICCD 0715 (clinical strain); test: MIC by broth microdilution, ICCD 0715; assay type: cell-based; settings: Clostridioides difficile, 24 h
Experimental: as §1

[10] = system: C. difficile strains used in this study; test: MIC by broth microdilution, range over the strains used in this study; assay type: cell-based; settings: Clostridioides difficile, read-out: MICs
Experimental: as §1

[11] = system: C. difficile 630 (ATCC BAA-1382); test: MIC by broth microdilution, 630; assay type: cell-based; settings: Clostridioides difficile
Experimental: as §1

C. difficile VPI 10463 [12] = test: CDI murine model, severe model; assay type: in vivo, C57BL/6 mice
[13] = non-severe model, environmental contamination
[14] = ATCC 700057 (VPI 11186), R038, reduced BHI, 24 h, highest of replicates

Structure (SMILES): CCCCC(CC)COC(=O)CC(C(=O)OCC(CC)CCCC)S(=O)(=O)O (centres unmarked) [docusate]
- Percent germination compared to all other treatments [1]: highest percent germination

Structure (SMILES): CN(C)c1cc(CNCC(C)(C)C)c(O)c2c1C[C@H]1C[C@H]3[C@H](N(C)C)C(O)=C(C(N)=O)C(=O)[C@@]3(O)C(O)=C1C2=O [Omadacycline, omadacycline]
- Mice succumbed to rCDI (C. difficile VPI 10463 [2]; by day 10): 20%
- Final survival, survivors/total mice (C. difficile VPI 10463 [2]; mouse, in vivo): 6/10
- Mortality (C. difficile VPI 10463 [2]; mouse, in vivo): 40%
- Mice positive for C. difficile spores (spore shedding), day 15 (C. difficile VPI 10463 [2]; non-severe model): 60%
- Final survival (C. difficile VPI 10463 [2]; non-severe model, after clindamycin-induced relapse (days 10-12)): 60%
- Positive cage swab rate, day 10 (C. difficile VPI 10463 [2]; [13]): 8.3%
- Positive cage swabs, day 13 (C. difficile VPI 10463 [2]; [13]): no positive swabs
- Effect on S-CFU ([3]; antibiotic in BHI without germinants, throughout the treatment period (96 h), four strains): did not affect S-CFU
- Fecal concentration [4]: approximately 430 mg/liter
- Fecal excretion ([4]; in vivo): 81%
- Killing of vegetative cells (T-CFU equaled S-CFU) ([5]; ATCC 1870, 24 to 96 h, with or without germinants): effective at killing vegetative cells
- MIC ([6]; ATCC43255, VP1 10463 (ATCC 43255), R087, reduced BHI, 24 h, read-out: MIC): 0.063 µg/mL (≈ 0.113 µM)
- MIC [7, 14]: 0.125 µg/mL (≈ 0.225 µM)
- MIC ([7]; Clostridioides difficile, ATCC700057, ATCC 700057 (VPI 11186), R038, reduced BHI, 24 h, highest of replicates, read-out: MIC): 0.125 µg/mL (≈ 0.225 µM)
- MIC ([8]; ATCC1870, 4118 (ATCC 1870), R027, reduced BHI, 24 h, read-out: MIC): 0.031 µg/mL (≈ 0.0557 µM)
- MIC ([9]; ICCD 0715 (clinical strain), R027, reduced BHI, read-out: MIC): 0.031 µg/mL (≈ 0.0557 µM)
- MIC ([10]; range for the strains used in this study): 0.031 to 0.125 µg/mL (≈ 0.0557 to 0.225 µM)
- MIC ([11]; ATCCBAA1382, 630 (ATCC BAA-1382), R012, reduced BHI, 24 h, read-out: MIC): 0.125 µg/mL (≈ 0.225 µM)
- Toxin amounts, day 1 (C. difficile VPI 10463 [12]; mouse, in vivo): similar
- Day 15 survival (C. difficile VPI 10463 [12]; severe model, treatment started 30 hours after spore gavage, once daily until day 5, OMC 0.25 mg, VAN 1.5 mg oral gavage): 60%

Structure (SMILES): CN[C@H](CC(C)C)C(=O)N[C@H]1C(=O)N[C@@H](CC(N)=O)C(=O)N[C@H]2C(=O)N[C@H]3C(=O)N[C@H](C(=O)N[C@H](C(=O)O)c4cc(O)cc(O)c4-c4cc3ccc4O)[C@H](O)c3ccc(c(Cl)c3)Oc3cc2cc(c3O[C@@H]2O[C@H](CO)[C@@H](O)[C@H](O)[C@H]2O[C@H]2C[C@](C)(N)[C@H](O)[C@H](C)O2)Oc2ccc(cc2Cl)[C@H]1O [Vancomycin, vancomycin]
- Clinical scoring and weight loss (disease) (C. difficile VPI 10463 [2]; mouse, in vivo): more disease
- Final survival (C. difficile VPI 10463 [2]; mouse, in vivo): 60%
- Final survival, survivors/total mice (C. difficile VPI 10463 [2]; mouse, in vivo): 6/10
- Mice positive for C. difficile spores (spore shedding), day 15 (C. difficile VPI 10463 [2]; mouse, in vivo): 100%
- Mice succumbed to rCDI (C. difficile VPI 10463 [2]; mouse, in vivo): 20%
- Mortality (C. difficile VPI 10463 [2]; mouse, in vivo): 40%
- Positive cage swab rate, day 10 (C. difficile VPI 10463 [2]; mouse, in vivo): 8.3%
- Positive cage swabs, day 13 (C. difficile VPI 10463 [2]; mouse, in vivo): 25%
- Toxin amounts, day 10 and 13 (C. difficile VPI 10463 [2]; mouse, in vivo): higher
- Effect on S-CFU [3]: did not affect S-CFU
- Fecal concentration [4]: 2,000 mg/liter
- Killing of vegetative cells (T-CFU equaled S-CFU) [5]: effective at killing vegetative cells
- MIC ([6]; ATCC43255, 24 h): 1 µg/mL (≈ 0.69 µM)
- MIC [7, 14]: 2 µg/mL (≈ 1.38 µM)
- MIC ([7]; Clostridioides difficile, ATCC700057, 24 h): 2 µg/mL (≈ 1.38 µM)
- MIC ([8]; ATCC1870, 24 h): 2 µg/mL (≈ 1.38 µM)
- MIC [9]: 4 µg/mL (≈ 2.76 µM)
- MIC [10]: 1 to 4 µg/mL (≈ 0.69 to 2.76 µM)
- MIC ([11]; ATCCBAA1382, 24 h): 4 µg/mL (≈ 2.76 µM)
- Median toxin A and B production, day 2 (C. difficile VPI 10463 [12]; mouse, in vivo): significantly higher
- Toxin amounts, day 1 (C. difficile VPI 10463 [12]; mouse, in vivo): similar
- Weight loss and clinical scoring (C. difficile VPI 10463 [12]; mouse, in vivo): higher
- Day 15 survival (C. difficile VPI 10463 [12]; mouse, in vivo, po): 13.3%
